Experimental data: US20050202407A1, “Methods and assays for screening anti-neoplastic therapeutic agents” (Baylor College of Medicine, priority 2003, published 2005)

What was measured:
ERK1/2 = assay: Phosphorylated ERK1/2 by Western blot; type: cell-based, human; conditions: Adcav-1- or AdRSV-infected cells
Procedure: Unless specifically indicated, immunoprecipitation (IP) was performed as follows. Cells were washed with ice-cold phosphate-buffered saline (PBS), lysed on the plates by incubation for 10 min on ice with IP lysis buffer, which consists of 20 mM Tris-HCl (pH 7.5), 150 mM NaCl, 1 mM EDTA, 1 mM EGTA, 1% Triton X-100, 1 mM β-glycerophosphate, 60 mM octylglucoside and protease inhibitor cocktail. Cells were then scraped off the dish, transferred to microcentrifuge tubes, placed on ice for 20 min, and centrifuged for 10 min at high speed in a microcentrifuge at 4° C. The supernatant (cell lysate) was transferred to a fresh tube and frozen at −80° C. until use. Typically, 500 μg of cell lysate proteins were diluted to 500 μl with IP lysis buffer and precleared by incubation with 3 μg of the corresponding immunoglobulin G (IgG) from […] for 30 min at 4° C. on a rocker, followed by the addition of 50 μl of IP lysis buffer-prewashed protein A or G plus agarose and incubation for another 1 h. The cleared cell lysate was incubated with 3 μg of specific antibody or the corresponding IgG overnight at 4° C. on a rocker. […] For regular Western blot analysis, protein concentration in cell lysates was determined by the Bio-Rad protein assay, and 30 μg of protein from each sample was loaded on the gel. β-Actin served as a loading control.

LNCaP cells = assay: Viability assay with MEK inhibitors
Procedure: (§1) Cells were infected or transfected in six-well plates. Forty-eight hours after infection or transfection, cells were treated with 1 μM Tg for the time indicated. At the end of the treatments MTS assays were performed using CellTiter 96 aqueous one solution reagent from Promega by a modified version of the procedure. Briefly 300 μl of MTS solution was added to each well and incubated for 1 h at 37° C. One milliliter of reaction or medium mix was transferred from each well to an Eppendorf tube and then centrifuged in a microcentrifuge for 5 min at 4,000 rpm (˜3,000×g). One hundred microliters of supernatant was transferred to each well of a 96-well plate, and the relative viability was determined by the measurement of absorbance at 490 nm in a 96-well plate reader. […] Apoptotic morphology was analyzed with phase-contrast fluorescence microscopy after incubation with 0.2 μg of 4′6′-dismidino-2-phenylindole (DAPI) per ml. The activities of caspases in the cell lysates were analyzed by Western blotting using specific antibodies recognizing procaspases or cleaved forms of caspases, followed by quantitative intensity analysis using software (GelExpert; Nucleo Vision) and normalized to the intensity of β-actin in the same sample.

PI3-K = PI3-K activity assay (TLC); type: cell-based, human; conditions: 1 μM Tg for 48 h; cav-1-expressing and control LNCaP cells
Procedure: Cell lysates were prepared as described above for the Akt activity assay. PI3-K activity assays were performed as described below. Briefly, 500 μg of cell lysate proteins were immunoprecipitated with monoclonal antibody against phosphotyrosine for 3 h at 4° C. with gentle rocking, and the beads were washed twice with lysis buffer and twice with PI3-K assay buffer (20 mM Tris [pH 7.5], 100 mM NaCl, 0.5 mM EGTA, 20 mM MgCl2). PI was dissolved in chloroform (5 mg/ml) and diluted to 0.5 mg/ml with PI3-K assay buffer, followed by sonication. […] Five microliters of washed chloroform phase from each sample was loaded on a TLC plate and analyzed by ascending chromatography in chloroform-methanol-29.5% ammonium hydroxide-water (90:90:8:19), followed by autoradiography.
Protein expression levels and kinase activities of PI3-K, PDK1, and Akt were determined in cav-1-expressing or vector control LNCaP cells before and after treatment with 1 μM Tg for 48 h (+Tg): (A) PI3-K kinase assay by TLC (top gel); (B) PDK1 IP kinase assay; (C) Akt IP kinase assay using recombinant GSK3 as a substrate. Total protein and phosphorylated protein (indicated by P-prefix before protein name) of each kinase were analyzed and presented in each blot. β-Actin served as a loading control. […]

PDK1 = PDK1 IP kinase assay; type: cell-based, human; conditions: 1 μM Tg for 48 h; LNCaP cells
Procedure: Cell lysates were prepared as described above. PDK1 activity assay was performed according to the manufacturer's protocol (Upstate Biotechnology). Radioactivity that remained on the P81 paper was read with TopCount (Packard).
Protein expression levels and kinase activities of PI3-K, PDK1, and Akt were determined in cav-1-expressing or vector control LNCaP cells before and after treatment with 1 μM Tg for 48 h (+Tg): (A) PI3-K kinase assay by TLC (top gel); (B) PDK1 IP kinase assay; (C) Akt IP kinase assay using recombinant GSK3 as a substrate. Total protein and phosphorylated protein (indicated by P-prefix before protein name) of each kinase were analyzed and presented in each blot. β-Actin served as a loading control. There was no difference in protein expression levels for PI3-K in cav-1-expressing cells to control vector-infected cells (FIG. 2A). Although PI3-K activity was reduced by Tg treatment, no difference was found between cav-1-expressing and control cells (FIG. 2A). Tg treatment also led to reduced PDK1 activity; however, compared with control RSV-infected cells, PDK1 activity was approximately 17% higher in cav-1-expressing cells and approximately 30% higher in Tg-treated cav-1-expressing cells (FIG. 2B). In the same lysates, there was no difference in PDK1 protein expression (FIG. 2B).

[1] = Viability assay with MEK inhibitors; conditions: human
Procedure: as §1

PP1 (catalytic subunit) = biological target: T1, PP1 (catalytic subunit) (Oryctolagus cuniculus, UniProt P62139); assay: In vitro malachite green phosphatase assay with purified cav-1; type: biochemical, rabbit; conditions: 100 ng purified cav-1, 0.02 U PP1
T1 construct: purchased New England BioLabs
Procedure: (§2) PP1 (catalytic subunit) (0.02 U) or PP2A (core enzyme) (0.01 U) was incubated with or without 100 ng of purified cav-1 protein for 1 h at 4° C. Phosphatase assay buffer and a phosphopeptide (K-R-pT-1-R-R) were added to a final volume of 50 μl. Reactions were initialed by the addition of 200 μM phosphopeptide, and reaction mixtures were incubated at room temperature for 10 min. Reactions were terminated by the addition of 100 μl of malachite green solution. Activities of PP1 and PP2A were determined by the measurement of absorbance at 620 nm.
(§3) To determine whether the effects of cav-1 on PP1 and PP2A are direct and whether cav-1 interacts with and inhibits PP1 and PP2A in vitro, in vitro IP experiments were performed using purified His-V5-tagged human cav-1, PP1 (C subunit), and PP2A (core enzyme). […] The results of in vitro phosphatase assays indicate that the addition of cav-1 reduced PP1 and PP2A activities by approximately 30% under these basic conditions (FIG. 3F). Briefly, cells were treated with purified cav-1 (¢) or not treated with purified cav-1 (£) and relative activity was determined by measuring the optical density at 620 nm (OD620).

PP2A (core enzyme) = biological target: T2, PP2A (core enzyme) (Homo sapiens, UniProt P67775); assay: as above; type: biochemical; conditions: 100 ng purified cav-1, 0.01 U PP2A
T2 construct: purchased Upstate Biotechnology
Procedure: as §2, §3

T2 sequence (P67775 whole entry): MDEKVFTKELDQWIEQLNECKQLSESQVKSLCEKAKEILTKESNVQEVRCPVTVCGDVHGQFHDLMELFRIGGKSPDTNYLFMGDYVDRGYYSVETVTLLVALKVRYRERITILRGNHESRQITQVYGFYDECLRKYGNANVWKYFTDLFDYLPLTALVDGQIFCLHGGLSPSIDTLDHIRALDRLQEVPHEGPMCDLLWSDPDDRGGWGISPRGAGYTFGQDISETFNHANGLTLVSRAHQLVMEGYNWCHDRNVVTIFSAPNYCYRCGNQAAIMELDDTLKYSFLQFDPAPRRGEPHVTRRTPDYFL
T2 sequence (P30153 2-589 partner limits assumed): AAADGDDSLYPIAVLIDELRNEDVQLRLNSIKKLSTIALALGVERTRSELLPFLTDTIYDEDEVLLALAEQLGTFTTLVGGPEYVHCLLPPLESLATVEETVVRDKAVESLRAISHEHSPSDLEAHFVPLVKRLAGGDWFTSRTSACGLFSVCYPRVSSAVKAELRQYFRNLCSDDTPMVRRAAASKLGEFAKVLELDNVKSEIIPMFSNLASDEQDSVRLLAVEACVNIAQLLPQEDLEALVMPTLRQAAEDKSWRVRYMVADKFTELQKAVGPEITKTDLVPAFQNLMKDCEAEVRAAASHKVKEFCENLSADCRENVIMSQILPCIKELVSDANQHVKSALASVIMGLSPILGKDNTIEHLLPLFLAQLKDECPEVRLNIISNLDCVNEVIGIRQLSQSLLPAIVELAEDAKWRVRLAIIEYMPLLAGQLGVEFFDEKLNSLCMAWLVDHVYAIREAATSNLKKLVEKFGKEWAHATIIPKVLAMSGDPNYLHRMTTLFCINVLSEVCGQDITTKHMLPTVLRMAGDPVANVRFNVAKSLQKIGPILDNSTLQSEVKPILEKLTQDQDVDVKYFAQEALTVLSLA
T1 sequence (P62139 whole entry): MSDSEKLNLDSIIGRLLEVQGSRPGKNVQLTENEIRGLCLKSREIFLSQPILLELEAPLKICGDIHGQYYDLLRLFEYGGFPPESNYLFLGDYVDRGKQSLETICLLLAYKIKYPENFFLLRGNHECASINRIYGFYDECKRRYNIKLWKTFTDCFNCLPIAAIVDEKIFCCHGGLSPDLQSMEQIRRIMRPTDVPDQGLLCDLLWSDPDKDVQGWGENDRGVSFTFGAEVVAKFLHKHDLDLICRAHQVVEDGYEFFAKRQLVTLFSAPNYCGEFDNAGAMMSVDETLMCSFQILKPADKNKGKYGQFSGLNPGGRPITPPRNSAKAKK

## COc1cccc(-c2cc(=O)c3ccccc3o2)c1N [PD98059]
ERK1/2
  phosphorylated ERK1/2: reduction
LNCaP cells
  reduction of cell viability: ~20%

## C/C=C(/C)C(=O)O[C@H]1C(C)=C2[C@H]([C@@H]1OC(=O)CCCCCCC)[C@@](C)(OC(C)=O)C[C@H](OC(=O)CCC)[C@@]1(O)[C@H]2OC(=O)[C@@]1(C)O [Tg, thapsigargin]
PI3-K
  PI3-K activity: reduced
PDK1
  PDK1 activity: reduced

## N#CC(=C(/N)Sc1ccccc1N)/C(C#N)=C(\N)Sc1ccccc1N [U0126]
ERK1/2
  phosphorylated ERK1/2: reduction
[1]
  cytotoxicity: ~15%

B1: purified cav-1: purified His-V5-tagged human cav-1 protein (protein, UniProt Q03135 2-178, looked up)
Caveolin-1: SGGKYVDSEGHLYTVPIREQGNIYKPNNKAMADELSEKQVYDAHTKEIDLVNRDPKHLNDDVVKIDFEDVIAEPEGTHSFDGIWKASFTTFTVTKYWFYRLLSALFGIPMALIWGIYFAILSFLHIWAVVPCIKSFLIEIQCISRVYSIYVHTVCDPLFEAVGKIFSNVRINLQKEI
modifications: His-V5 tag
notes: purified His-V5-tagged human cav-1 protein
PP1 (catalytic subunit)
  reduction of PP1 activity: approximately 30%
PP2A (core enzyme)
  reduction of PP2A activity: approximately 30%
